Results as given in patent US20250326749A1, “COMPOUNDS, COMPOSITIONS, AND METHODS OF USING THEREOF” (Sionna Therapeutics Inc., priority 2022, published 2025).

Molecular target: T1, ΔF508-CFTR (Homo sapiens, UniProt P13569, DEL508-508)
T1 construct: expressed in transfected cells; host or cells: CFSMEo- (human CF submucosal gland epithelial cells, ΔF508/Q2X), transiently transfected by nucleofection
Assay: ΔF508-CFTR-HRP trafficking assay (cell surface expression of ΔF508-CFTR)
Assay type: cell-based
Conditions: CFSMEo- cells transiently transfected with ΔF508-CFTR-HRP; test agent 3 μM, 48 h; HRP chemiluminescence
Text: Test agents were screened for their effect on cell surface expression of ΔF508-CFTR using the ΔF508-CFTR-HRP trafficking assay. For this assay, a ΔF508-CFTR expression construct was designed with an in-frame insertion of a horseradish peroxidase (HRP) tag into the 4th extracellular loop of CFTR. The HRP tag would be presented extracellularly, in cells transiently transfected with the ΔF508-CFTR-HRP construct, following correction of the ΔF508-CFTR trafficking defect. The quantity of ΔF508-CFTR-HRP expressed on the plasma membrane could therefore be determined by measuring an HRP-dependent signal after the application of a cell-impermeable HRP substrate.
In brief, CF submucosal gland epithelial cells (CFSMEo-), derived from the airways of a CF patient (ΔF508/Q2X) and provided by Dr. Dieter Gruenert, University of California-San Francisco, were cultured at 37° C. with 5% CO2 in minimum essential medium (MEM) with Earle's salt and nonessential amino acids, supplemented with 10% (volume per volume [v/v]) fetal bovine serum, 2 mM L-glutamine and 1× (v/v) penicillin/streptomycin and grown in tissue culture-treated flasks coated with an extracellular matrix (ECM) cocktail consisting of 10 μg/mL human fibronectin, 30 μg/mL bovine collagen type I, and 100 μg/mL bovine serum albumin in LHC basal medium. These CFSMEo^− cells were transiently transfected with 4 μg of the ΔF508-CFTR-HRP expression construct using the Lonza 4D-Nucleofector Core unit (Lonza, Catalogue No. AAF-1002B) with the X unit (Lonza, Catalogue No. AAF-1002X) and SF Cell Line 4D-Nucleofector X Kit L (Lonza, Catalogue No. V4XC-2024) according to the manufacturer's instructions and plated at 1.2×10^4 cells/well onto collagen-coated, 96-well plates (Corning Inc.). Twenty-four h post-transfection, cells were treated with test agents, solubilized in DMSO at a concentration of 3 μM in replicates of 3, and allowed to incubate for 48 h. To detect HRP expression, cell culture media was removed, cells were washed with PBS and 100 μL of Luminata Forte HRP chemiluminescent substrate (EMD Millipore, Burlington, MA) was added to each well. Following a 5-minute incubation, chemiluminescence was measured in relative luminescent units (RLUs) using an EnVision plate reader (Perkin Elmer, Waltham, MA).
The ΔF508-CFTR-HRP trafficking data was normalized to the vehicle treated control (0.3% DMSO), followed by calculation of the mean, standard deviation, and standard error. If the test agent increased cell surface expression of ΔF508-CFTR-HRP relative to the vehicle-treated control, then that test agent was considered a ΔF508-CFTR corrector. Based on the description above, the biological activity of the examples in this disclosure is collected in Table 2.

T1 sequence (P13569 with tags, fused parts or gaps DEL508-508): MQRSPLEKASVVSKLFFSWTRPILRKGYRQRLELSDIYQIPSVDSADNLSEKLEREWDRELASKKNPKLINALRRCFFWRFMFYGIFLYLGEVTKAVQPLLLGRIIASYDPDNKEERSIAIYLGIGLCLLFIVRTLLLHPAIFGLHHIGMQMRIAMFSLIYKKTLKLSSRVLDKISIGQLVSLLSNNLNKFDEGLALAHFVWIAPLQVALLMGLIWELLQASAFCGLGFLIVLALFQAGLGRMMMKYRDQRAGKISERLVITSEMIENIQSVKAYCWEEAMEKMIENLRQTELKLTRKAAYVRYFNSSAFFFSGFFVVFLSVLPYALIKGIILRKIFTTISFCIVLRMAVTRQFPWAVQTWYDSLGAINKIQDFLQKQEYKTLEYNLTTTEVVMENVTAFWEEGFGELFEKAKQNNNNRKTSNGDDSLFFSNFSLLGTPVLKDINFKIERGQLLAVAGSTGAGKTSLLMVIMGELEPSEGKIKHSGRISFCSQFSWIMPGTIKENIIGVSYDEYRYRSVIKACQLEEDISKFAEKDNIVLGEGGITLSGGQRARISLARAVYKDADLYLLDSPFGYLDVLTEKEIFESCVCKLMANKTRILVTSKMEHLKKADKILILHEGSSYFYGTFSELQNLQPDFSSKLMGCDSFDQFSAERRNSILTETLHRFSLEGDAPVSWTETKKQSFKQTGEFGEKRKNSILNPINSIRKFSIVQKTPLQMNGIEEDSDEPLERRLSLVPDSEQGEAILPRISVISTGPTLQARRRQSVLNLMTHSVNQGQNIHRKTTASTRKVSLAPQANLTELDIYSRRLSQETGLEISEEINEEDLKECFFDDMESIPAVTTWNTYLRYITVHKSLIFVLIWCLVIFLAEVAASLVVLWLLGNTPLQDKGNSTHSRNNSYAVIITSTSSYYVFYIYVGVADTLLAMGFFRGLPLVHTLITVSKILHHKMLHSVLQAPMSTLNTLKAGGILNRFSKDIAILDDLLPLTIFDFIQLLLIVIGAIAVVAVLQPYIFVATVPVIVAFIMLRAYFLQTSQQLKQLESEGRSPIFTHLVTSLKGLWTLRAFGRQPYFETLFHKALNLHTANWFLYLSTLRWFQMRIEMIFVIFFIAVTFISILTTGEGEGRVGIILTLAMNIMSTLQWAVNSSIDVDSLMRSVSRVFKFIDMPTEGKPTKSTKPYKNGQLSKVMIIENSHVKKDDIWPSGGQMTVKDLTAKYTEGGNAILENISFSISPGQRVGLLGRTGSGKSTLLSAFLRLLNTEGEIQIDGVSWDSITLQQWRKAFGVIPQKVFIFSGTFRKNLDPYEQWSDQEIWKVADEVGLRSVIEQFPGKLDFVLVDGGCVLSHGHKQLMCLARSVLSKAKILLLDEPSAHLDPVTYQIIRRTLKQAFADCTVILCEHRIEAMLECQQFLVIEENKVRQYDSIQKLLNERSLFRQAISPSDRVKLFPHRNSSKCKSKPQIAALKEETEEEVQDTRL

| SMILES | RLUs: ΔF508-CFTR-HRP trafficking data normalized to the vehicle treated control (0.3% DMSO) |
| --- | --- |
| C[C@H](Oc1cncc(-n2nc(C(F)(F)F)c3c2[C@H](CN2CCC(C(=O)O)CC2)CCC3)c1)c1ccc2c(c1)OC(F)(F)O2 (single isomer, unassigned) [124 (P2)] | B (RLU 3.5 μM-5.0 μM) |
| C[C@H](Oc1cc(-n2nc(C(F)(F)F)c3c2[C@@H](CN2CCC(C(=O)O)CC2)CCC3)ccn1)c1ccc2c(c1)OC(F)(F)O2 (single isomer, unassigned) [125 (P1)] | A (RLU 5.0 μM-10 μM) |
| C[C@H](Oc1cc(-n2nc(C(F)(F)F)c3c2[C@H](CN2CCC(C(=O)O)CC2)CCC3)ccn1)c1ccc2c(c1)OC(F)(F)O2 (single isomer, unassigned) [125 (P2)] | A (RLU 5.0 μM-10 μM) |
| C[C@@H](Oc1cc(-n2nc(C(F)(F)F)c3c2N(CC24CC(C(=O)O)(C2)C4)CCC3)cnn1)c1cc2c(cn1)OC(F)(F)O2 (single isomer, unassigned) [Example 1] | C (RLU 0.0 μM-3.5 μM) |
| C[C@H](Oc1cc(-n2nc(C(F)(F)F)c3c2N(CC24CC(C(=O)O)(C2)C4)CCC3)cnn1)c1cc2c(cn1)OC(F)(F)O2 (single isomer, unassigned) [Example 2] | C (RLU 0.0 μM-3.5 μM) |
| C[C@@H](Oc1cc(-n2nc(C(F)(F)F)c3c2N(Cc2ccc(C(=O)O)cc2)CCC3)cnn1)c1ccc2c(c1)OC(F)(F)O2 (single isomer, unassigned) [Example 3] | C (RLU 0.0 μM-3.5 μM) |
| C[C@H](Oc1cc(-n2nc(C(F)(F)F)c3c2N(Cc2ccc(C(=O)O)cc2)CCC3)cnn1)c1ccc2c(c1)OC(F)(F)O2 (single isomer, unassigned) [Example 4] | B (RLU 3.5 μM-5.0 μM) |
| C[C@@H](Oc1cc(-n2nc(C(F)(F)F)c3c2N(CC24CC(C(=O)O)(C2)C4)CCC3)cnn1)c1ccc2c(c1)OC(F)(F)O2 (single isomer, unassigned) [Example 5] | A (RLU 5.0 μM-10 μM) |
| C[C@H](Oc1cc(-n2nc(C(F)(F)F)c3c2N(CC24CC(C(=O)O)(C2)C4)CCC3)cnn1)c1ccc2c(c1)OC(F)(F)O2 (single isomer, unassigned) [Example 6] | C (RLU 0.0 μM-3.5 μM) |
| C[C@H](Oc1cc(-n2nc(C(F)(F)F)c3c2N(C[C@H]2CC[C@H](C(=O)O)CC2)CCC3)ccn1)c1ccc2c(c1)OC(F)(F)O2 (single isomer, unassigned) [Example 7] | A (RLU 5.0 μM-10 μM) |
| C[C@H](Oc1cc(-n2nc(C(F)(F)F)c3c2N(CC24CCC(C(=O)O)(CC2)CC4)CCC3)ccn1)c1ccc2c(c1)OC(F)(F)O2 (single isomer, unassigned) [Example 9] | A (RLU 5.0 μM-10 μM) |
| C[C@H](Oc1cncc(-n2nc(C(F)(F)F)c3c2N(Cc2ccc(C(=O)O)cc2)CCC3)c1)c1ccc2c(c1)OC(F)(F)O2 (single isomer, unassigned) [Example 12] | C (RLU 0.0 μM-3.5 μM) |
| C[C@H](Oc1cncc(-n2nc(C(F)(F)F)c3c2N(CC24CCC(C(=O)O)(CC2)CC4)CCC3)c1)c1ccc2c(c1)OC(F)(F)O2 (single isomer, unassigned) [Example 14] | A (RLU 5.0 μM-10 μM) |
| C[C@H](Oc1cccc(-n2nc(C(F)(F)F)c3c2N(C(=O)c2ccc(C(=O)O)cc2)CCC3)c1)c1ccc2c(c1)OC(F)(F)O2 (single isomer, unassigned) [Example 15] | B (RLU 3.5 μM-5.0 μM) |
| C[C@H](Oc1cncc(-n2nc(C(F)(F)F)c3c2N(C(=O)c2ccc(C(=O)O)cc2)CCC3)c1)c1ccc2c(c1)OC(F)(F)O2 (single isomer, unassigned) [Example 16] | C (RLU 0.0 μM-3.5 μM) |
| C[C@H](Oc1cncc(-n2nc(C(F)(F)F)c3c2N(C(=O)[C@H]2CC[C@H](C(=O)O)CC2)CCC3)c1)c1ccc2c(c1)OC(F)(F)O2 (single isomer, unassigned) [Example 17] | C (RLU 0.0 μM-3.5 μM) |

Other lines, results leading:

| RLUs: ΔF508-CFTR-HRP trafficking data normalized to the vehicle treated control (0.3% DMSO) | SMILES |
| --- | --- |
| C (RLU 0.0 μM-3.5 μM) | C[C@H](Oc1cc(-n2nc(C(F)(F)F)c3c2[C@H](Oc2ccc(C(=O)O)cc2)CCC3)ccn1)c1ccc2c(c1)OC(F)(F)O2 (single isomer, unassigned) [Example 23] |
| B (RLU 3.5 μM-5.0 μM) | C[C@H](Oc1cccc(-n2nc(C(F)(F)F)c3c2[C@@H](Oc2ccc(C(=O)O)cc2)CCC3)c1)c1ccc2c(c1)OC(F)(F)O2 (single isomer, unassigned) [Example 25] |
| A (RLU 5.0 μM-10 μM) | C[C@H](Oc1cccc(-n2nc(C(F)(F)F)c3c2[C@H](Oc2ccc(C(=O)O)cc2)CCC3)c1)c1ccc2c(c1)OC(F)(F)O2 (single isomer, unassigned) [Example 26] |
| C (RLU 0.0 μM-3.5 μM) | C[C@H](Oc1cncc(-n2nc(C(F)(F)F)c3c2[C@@H](Oc2ccc(C(=O)O)cc2)CCC3)c1)c1ccc2c(c1)OC(F)(F)O2 (single isomer, unassigned) [Example 27] |
| A (RLU 5.0 μM-10 μM) | C[C@@H](Oc1cccc(-n2nc(C(F)(F)F)c3c2C(Oc2ccc(C(=O)O)cc2)CCC3)c1)c1ccc2c(c1)OC(F)(F)O2 (single isomer, unassigned) [Example 28] |
| B (RLU 3.5 μM-5.0 μM) | Cc1cc(OC2CCCc3c(C(F)(F)F)nn(-c4cccc(O[C@H](C)c5cc6c(cc5F)OC(F)(F)O6)c4)c32)ccc1C(=O)O (single isomer, unassigned) [Example 34] |
| C (RLU 0.0 μM-3.5 μM) | C[C@H](Oc1cc(-n2nc(C(F)(F)F)c3c2[C@@H](Oc2ccc(C(=O)O)cc2)CCC3)ccc1F)c1ccc2c(c1)OC(F)(F)O2 (single isomer, unassigned) [Example 36] |
| A (RLU 5.0 μM-10 μM) | C[C@H](Oc1cc(-n2nc(C(F)(F)F)c3c2[C@@H](Oc2ccc(C(=O)O)cc2)CCC3)ccn1)c1cc2c(cc1F)OC(F)(F)O2 (single isomer, unassigned) [Example 36a] |
| A (RLU 5.0 μM-10 μM) | C[C@H](Oc1ccnc(-n2nc(C(F)(F)F)c3c2[C@@H](Oc2ccc(C(=O)O)cc2)CCC3)c1)c1ccc2c(c1)OC(F)(F)O2 (single isomer, unassigned) [Example 36b] |
| B (RLU 3.5 μM-5.0 μM) | C[C@H](Oc1cccc(-n2nc(C(F)(F)F)c3c2[C@@H](Oc2ccc(C(=O)O)cc2)CCC3)n1)c1ccc2c(c1)OC(F)(F)O2 (single isomer, unassigned) [Example 36c] |
| B (RLU 3.5 μM-5.0 μM) | C[C@H](Oc1cc(-n2nc(C(F)(F)F)c3c2[C@@H](Oc2ccc(C(=O)O)cc2)CCC3)cnc1F)c1cc2c(cc1F)OC(F)(F)O2 (single isomer, unassigned) [Example 36d] |
| A (RLU 5.0 μM-10 μM) | C[C@H](Oc1cncc(-n2nc(C(F)(F)F)c3c2[C@@H](Oc2ccc(C(=O)O)cc2)CCC3)c1)c1cc2c(cc1F)OC(F)(F)O2 (single isomer, unassigned) [Example 36e] |
| A (RLU 5.0 μM-10 μM) | C[C@H](Oc1nc(-n2nc(C(F)(F)F)c3c2[C@@H](Oc2ccc(C(=O)O)cc2)CCC3)ccc1F)c1ccc2c(c1)OC(F)(F)O2 (single isomer, unassigned) [Example 36f] |
| B (RLU 3.5 μM-5.0 μM) | C[C@H](Oc1cccc(-n2nc(C(F)(F)F)c3c2[C@@H](Oc2ccc(C(=O)O)cc2)CCC3)c1)c1cc2c(cc1F)OC(F)(F)O2 (single isomer, unassigned) [Example 36g] |
